Data on 35 molecules can be found in ChEMBL document CHEMBL1124855, “Synthesis and muscarinic activities of 1,2,4-thiadiazoles” (J Med Chem, 1990).

SMILES strings stand for the structures.

The target of assay [1] is T1, Muscarinic acetylcholine receptor (Rattus norvegicus) (UniProt P08482+P08483+P08485+P08911+P10980).
Description: Ability to displace radioligand [3H]N-methylscopolamine (NMS) at muscarinic acetylcholine receptor from rat cortical homogenate.
Assay [2] addresses T1, Muscarinic acetylcholine receptor (Rattus norvegicus). This is another data set of the same source.
Description: Affinity to displace radioligand [3H]oxotremorine (OXO) at muscarinic acetylcholine receptor from rat cortical homogenate.
For assay [3], the system named is Muscarinic acetylcholine receptor (Rattus norvegicus). Briefly: Ratio of [3H]N-methylscopolamine (NMS) to [3H]oxotremorine (OXO) at Muscarinic acetylcholine receptor from rat cortical homogenate.
The target in assay [4] is T1, Muscarinic acetylcholine receptor (Rattus norvegicus). Briefly: Ability to displace radioligand [3H]N-methylscopolamine (NMS) at Muscarinic acetylcholine receptor from rat cortical homogenate.

Regarding `c1nsc(C2CN3CCC2CC3)n1` (stereo not given), the K app is 3.3 µM in assay [1] and 0.0077 µM in assay [2].
For `COc1nsc(C2CN3CCC2CC3)n1` (stereo not given), the K app in assay [1] is 0.9 µM; in assay [2], 0.033 µM.
`Cc1noc(C2=CCCN(C)C2)n1`: the Ratio in assay [3] came to 390.
`c1ccc(Cc2nsc(C3CN4CCC3CC4)n2)cc1` (stereo not given): the K app in assay [1] was found to be 0.082 µM; in assay [2], 0.014 µM.
Take `CN(C)c1nsc(C2CN3CCC2CC3)n1` (stereo not given): the K app in assay [1] was 0.14 µM; in assay [2], 0.023 µM.
As for `CSc1nsc(C2CN3CCC2CC3)n1` (stereo not given), the values for the K app in assay [1] and in assay [2] were 0.12 µM and 0.012 µM, respectively.
On to `c1ccc(Cc2nsc([C@H]3CN4CCC3C4)n2)cc1` (stereo not given in full), for which the values for the K app in assay [1] and in assay [2] were 0.54 µM and 0.061 µM, respectively.
On to `CC(C)c1nsc([C@@H]2CN3CCC2C3)n1` (stereo not given in full), for which the values for the K app in assay [1] and in assay [2] were 0.29 µM and 0.041 µM, respectively.
Regarding `C1=C(c2ncns2)CNCC1`, the values for the K app in assay [1] and in assay [2] were 11 µM and 0.014 µM, respectively.
In the case of `CC(C)c1nsc(C2CN3CCC2CC3)n1` (stereo not given), the figures for the K app in assay [1] and in assay [2] were 0.033 µM and 0.0031 µM, respectively.
The matching figures for `C1CC1c1nsc(C2CN3CCC2CC3)n1` (stereo not given): 0.023 µM and 0.0028 µM.
For the molecule `c1nsc([C@H]2CN3CCC2C3)n1` (stereo not given in full), the K app in assay [1] is 1.4 µM; in assay [2], 0.0013 µM.
On to `OC(c1ccccc1)(c1ccccc1)c1nsc(C2CN3CCC2CC3)n1` (stereo not given), for which the K app in assay [1] amounted to 0.0002 µM; in assay [2], 6.8e-05 µM.
As to `Cc1nsc(C2=CCCN(C)C2)n1`, the K app stood at 1.4 µM in assay [1] and 0.0089 µM in assay [2].
Turning to `CN(C)c1nsc([C@@H]2CN3CCC2C3)n1` (stereo not given in full), the K app in assay [1] came out at 0.84 µM; in assay [2], 0.062 µM.
As for `c1nsc([C@@H]2CN3CCC2C3)n1` (stereo not given in full), the K app in assay [2] was 0.0056 µM; in assay [4], 6.4 µM.
Turning to `CCc1nsc([C@H]2CN3CCC2C3)n1` (stereo not given in full), the K app in assay [1] came to 0.51 µM; in assay [2], 0.033 µM.
As for `C1CC1c1nsc([C@H]2CN3CCC2C3)n1` (stereo not given in full), the results for the K app in assay [1] and in assay [2] were 0.16 µM and 0.019 µM, respectively.
The like results for `COc1nsc([C@H]2CN3CCC2C3)n1` (stereo not given in full) were, in that order, 1.8 µM and 0.017 µM.
As for `COC(=O)C1=CCCNC1`, the values for the K app in assay [1] and in assay [2] were 20 µM and 0.017 µM, respectively.
`Cc1nsc(C2CCN(C)C2)n1` (stereo not given): the K app in assay [1] is 36 µM; in assay [2], 0.15 µM.
The matching figures for `CCc1nsc([C@@H]2CN3CCC2C3)n1` (stereo not given in full): 0.29 µM and 0.005 µM.
For `CC(C)c1nsc([C@H]2CN3CCC2C3)n1` (stereo not given in full), the figures for the K app in assay [1] and in assay [2] were 0.4 µM and 0.055 µM, respectively.
As to `CN1CCC=C(c2ncno2)C1`, the K app in assay [1] came out at 8.9 µM; in assay [2] it was 0.0077 µM. The Ratio in assay [3] is 1200.
In the case of `COc1nsc([C@@H]2CN3CCC2C3)n1` (stereo not given in full), the K app in assay [1] came to 2 µM; in assay [2] it was 0.006 µM.
The matching figures for `Cc1nsc(C2CCNC2)n1` (stereo not given): 18 µM and 0.054 µM.
Take `C1CC1c1nsc([C@@H]2CN3CCC2C3)n1` (stereo not given in full): the figures for the K app in assay [1] and in assay [2] were 0.21 µM and 0.004 µM, respectively.
`Cc1nsc([C@@H]2CN3CCC2C3)n1` (stereo not given in full): the results for the K app in assay [1] and in assay [2] were 0.62 µM and 0.00062 µM, respectively.
Consider `CN1CCC=C(c2ncns2)C1`, for which the values for the K app in assay [1] and in assay [2] were 11 µM and 0.027 µM, respectively.
`Cc1nsc(C2=CCCNC2)n1`: the K app is 0.95 µM in assay [1] and 0.0021 µM in assay [2].
Turning to `CN(C)c1nsc([C@H]2CN3CCC2C3)n1` (stereo not given in full), the figures for the K app in assay [1] and in assay [2] were 0.99 µM and 0.098 µM, respectively.
For `Cc1nsc(C2CN3CCC2CC3)n1` (stereo not given), the results for the K app in assay [1] and in assay [2] were 0.36 µM and 0.00078 µM, respectively.
The like results for `Cc1nsc([C@H]2CN3CCC2C3)n1` (stereo not given in full) were, in that order, 0.37 µM and 0.00045 µM.
For `c1ccc(Cc2nsc([C@@H]3CN4CCC3C4)n2)cc1` (stereo not given in full), the K app was determined as 0.34 µM in assay [1] and 0.074 µM in assay [2].
For `CCc1nsc(C2CN3CCC2CC3)n1` (stereo not given), the K app in assay [1] was found to be 0.082 µM; in assay [2], 0.009 µM.
